Measurements as given in US4355025A, “Biologically active amides” (Burroughs Wellcome Co., priority 1975, dated 1982).

Tested on: mice of the NZO strain (genetically obese, hyperglycaemic and hyperinsulinaemic)
Assay: APP given intraperitoneally to NZO mice: blood glucose, serum insulin, weight, oral Glucose Tolerance Test
Format: in vivo
Details: mean of APP-treated group, 1 μg i.p. 3 times a day; for Serum Insulin: Beef equivalent
Text: It has now unexpectedly been found by the Applicants that these vertebrate pancreatic polypeptides (hereinafter collectively referred to as VPPs, which term should be understood to include such polypeptides of avian, amphibian, piscian, reptilian or mammalian origin) are as a class effective in lowering the concentration in the blood of both glucose and insulin when administered to a strain (NZO) of genetically obese, hyperglycaemic and hyperinsulinaemic mice. At the same time these treated mice lose weight as compared with untreated control animals and give normalized values in the oral Glucose Tolerance Test standard in the art.
APP (Endocrinology 83, 1323 (1968)) (1 μg) in water (0.1 ml) was administered by intraperitoneal injection 3 times a day for 25 days to each of 5 male mice (age 6 weeks, weight 23 g) of the NZO strain (genetically obese, hyperglycaemic and hyperinsulinaemic). 5 Matched control animals each received plain water (0.1 ml) by the same route and according to the same schedule. The blood glucose and serum insulin levels were measured at the start and during the course of the experiment and the mean results for the APP-treated group are shown in Table 1. No change in these levels from the values on day 0, which were the same as in the treated group, occurred in the control group over the course of the experiment.

Substance: avian pancreatic polypeptide [APP]
- Serum Insulin (Day 0 (start)): 189 μU/ml
- Blood glucose (Day 0 (start), 5 male NZO mice): 175 mg. %
- Blood glucose (Day 5): 162 mg. %
- Serum Insulin (Day 10): 99 μU/ml
- Blood glucose (Day 15): 154 mg. %
- Serum Insulin (Day 20): 47 μU/ml
- Blood glucose (Day 25): 136 mg. %
